The values below are quoted from earlier work in patent US20240269083A1, “PROLONGED-RELEASE PHARMACEUTICAL COMPOSITION FOR ORAL ADMINISTRATION OF SULTIAME” (ADVICENNE, priority 2021, published 2024).

This data set relates to erythrocytes. The following applies: single doses of Ospolot, fasting, healthy subjects.

For `NS(=O)(=O)c1ccc(N2CCCCS2(=O)=O)cc1` [sultiame, Sultiame], the affinity for erythrocytes result is listed as “very strong affinity for erythrocytes”.
